US20130252943A1, “BICYCLIC OXAZOLE LACTAMS AS ALLOSTERIC MODULATORS OF MGLUR5 RECEPTORS” (VANDERBILT UNIVERSITY, priority 2012, published 2013)

How the values were obtained:
[1] = target: human mGluR5 (Homo sapiens, UniProt P41594); assay: Cell-based functional Ca2+ mobilization assay (FDSS), potentiation of glutamate EC20 response, H10H cell line; settings: HEK H10H cells; for Emax: maximum average response at a single concentration, as percent of maximal glutamate response, glutamate EC20; for EC50: positive allosteric modulation in presence of glutamate EC20, concentration in mol/L
Text: Human mGluR5a cDNA in pCMV6-XL6 mammalian expression plasmid was purchased from OriGene Technologies, Inc. (catalogue number SC326357) and subcloned into pcDNA3.1(−). Human embryonic kidney (HEK)293A cells were then transfected with human mGluR5a pcDNA3.1(−) using LipofectAmine-2000 (Invitrogen) and monoclones were selected and tested for functional response using a Ca^2+ mobilization assay. Monoclones were named for the species (“H” for human) plus the location on the plate (e.g. “10H”).
HEK cells transfected with the human mGluR5a receptor (H10H or H12H cell line) were plated at 15,000 cells/well in clear-bottomed poly-D-lysinecoated assay plates (BD Falcon) in glutamate-glutamine-free growth medium and incubated overnight at 37° C. and 5% CO2. Cell-lines used were either the H10H or H12H cell-lines expressing the human mGluR5 receptor. The following day, the growth medium was removed and the cells were washed with assay buffer containing 1× Hank's balanced salt solution (Invitrogen, Carlsbad, Calif.), 20 mM HEPES, 2.5 mM probenecid, pH 7.4 and left with 20 μL of this reagent. Following this step, the cells were loaded with calcium indicator dye, fluo-4 AM, to a final concentration of 2 μM and incubated for 40-45 min at 37° C. The dye solution was removed and replaced with assay buffer. Cell plates were held for 10-15 min at room temperature and were then loaded into the Functional Drug Screening System 6000 (FDSS 6000, Hamamatsu, Japan).
After establishment of a fluorescence baseline for about 3 seconds, the compounds of the present invention were added to the cells, and the response in cells was measured. 2.3 minutes later an EC20 concentration of the mGluR5 receptor agonist glutamate was added to the cells, and the response of the cells was measured for about 1.7 minutes. All test compounds were dissolved and diluted to a concentration of 10 mM in 100% DMSO and then serially diluted into assay buffer for a 2× stock solution in 0.6% DMSO; stock compounds were then added to the assay for a final DMSO concentration of 0.3% after the first addition to the assay well. Calcium fluorescence measures were recorded as fold over basal fluorescence; raw data was then normalized to the maximal response to glutamate.
The concentration-response curves of compounds of the present invention, obtained in the presence of EC20 of mGluR5 receptor agonist glutamate to determine positive allosteric modulation, were generated using Microsoft Excel with IDBS XLFit add-ins. The raw data file containing all time points was used as the data source in the analysis template. This was saved by the FDSS as a tab-delimited text file. Data were normalized using a static ratio function (F/F0) for each measurement of the total 350 values per well divided by each well's initial value. Data was then reduced as to peak amplitudes (Max—Initial Min) using a time range that starts approximately 1 second after the glutamate EC20 addition and continues for approximately 40 seconds. This is sufficient time to capture the peak amplitude of the cellular Calcium response. Individual amplitudes were expressed as % EMax by multiplying each amplitude by 100 and then dividing the product by the mean of the amplitudes derived from the glutamate ECMax-treated wells. pEC50 values for test compounds were generated by fitting the normalized values versus the log of the test compound concentration (in mol/L) using a 4 parameter logistic equation where none of the parameters were fixed. Each of the three values collected at each concentration of test compound were weighted evenly. Individual values falling outside the 95% prediction limits of the curve fit were automatically excluded from the fit. […] These two methods are in good agreement for curves with a clear plateau at the high concentration range. […] For consistency purposes across the range of potencies observed, all EMax values reported in this application are calculated using the maximum average response at a single concentration. […]

Sequence of human mGluR5 (P41594 21-1180 isoform P41594-2 limits assumed): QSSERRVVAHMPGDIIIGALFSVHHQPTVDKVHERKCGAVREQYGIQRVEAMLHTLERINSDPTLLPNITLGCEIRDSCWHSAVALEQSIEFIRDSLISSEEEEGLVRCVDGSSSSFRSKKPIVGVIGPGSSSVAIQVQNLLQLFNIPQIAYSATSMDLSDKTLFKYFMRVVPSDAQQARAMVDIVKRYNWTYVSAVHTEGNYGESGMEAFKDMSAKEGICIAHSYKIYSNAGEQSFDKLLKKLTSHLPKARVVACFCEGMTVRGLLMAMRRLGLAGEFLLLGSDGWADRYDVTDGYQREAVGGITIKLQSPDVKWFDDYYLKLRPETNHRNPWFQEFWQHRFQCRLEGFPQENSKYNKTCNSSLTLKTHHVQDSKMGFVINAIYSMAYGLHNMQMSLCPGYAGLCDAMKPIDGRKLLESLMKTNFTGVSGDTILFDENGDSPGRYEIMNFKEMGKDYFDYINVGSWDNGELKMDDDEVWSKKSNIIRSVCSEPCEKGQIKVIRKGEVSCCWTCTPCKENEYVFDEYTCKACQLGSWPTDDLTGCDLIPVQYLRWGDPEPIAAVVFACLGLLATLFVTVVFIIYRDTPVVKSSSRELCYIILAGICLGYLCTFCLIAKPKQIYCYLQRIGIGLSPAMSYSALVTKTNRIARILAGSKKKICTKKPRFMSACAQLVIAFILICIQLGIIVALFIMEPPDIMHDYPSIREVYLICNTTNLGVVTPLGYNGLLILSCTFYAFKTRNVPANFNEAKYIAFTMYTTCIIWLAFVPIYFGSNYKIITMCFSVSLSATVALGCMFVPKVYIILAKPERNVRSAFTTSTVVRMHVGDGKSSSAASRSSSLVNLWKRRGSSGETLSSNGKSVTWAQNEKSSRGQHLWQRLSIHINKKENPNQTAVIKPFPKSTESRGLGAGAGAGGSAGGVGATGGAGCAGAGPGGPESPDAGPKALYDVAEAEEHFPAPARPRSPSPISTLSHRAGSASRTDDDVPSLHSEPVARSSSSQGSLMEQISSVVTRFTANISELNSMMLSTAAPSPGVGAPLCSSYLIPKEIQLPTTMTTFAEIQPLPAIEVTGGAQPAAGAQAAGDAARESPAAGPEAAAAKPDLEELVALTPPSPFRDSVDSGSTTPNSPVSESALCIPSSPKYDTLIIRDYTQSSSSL

Emax [1] [%] | EC50 [1] [nM] | melting point [°C] | Structure (SMILES)
53 | > 10000 | 116.3 | Cc1cccc(N2CCc3nc(COc4ccccc4)oc3C2=O)n1 [Compound B14]
75 | 646 | 137.2 | O=C1c2oc(COc3ccccc3)nc2CCN1c1cccc(F)c1F [Compound B4]
62 | 2140 | 131.9 | O=C1c2oc(COc3ccccc3)nc2CCN1c1ccc(F)cn1 [Compound B11]
25 | > 30200 |  | CN1CCCc2nc(COc3ccccc3)oc2C1=O [Compound B39]
63 | 1510 | 150.7 | O=C1c2oc(COc3ccccc3)nc2CCN1c1cc(F)cc(F)c1 [Compound B7]
59 | 891 |  | O=C1c2oc(COc3ccccc3)nc2CCN1Cc1ccccc1 [Compound B36]
53 | 3090 | 142 | COc1nccc(N2CCc3nc(COc4ccccc4)oc3C2=O)n1 [Compound B23]
54 | 977 |  | C[C@@H](N1CCc2nc(COc3ccccc3)oc2C1=O)C(C)(C)C [Compound B35, (R)-2-phenoxymethyl-5-(1,2,2-trimethyl-propyl)-6,7-dihydro-5H-oxazolo[5,4-c]pyridin-4-one]
44 | > 10000 | 138.8 | Cc1cncc(N2CCc3nc(COc4ccccc4)oc3C2=O)n1 [Compound B24]
35 | > 30200 |  | CN1CCc2nc(COc3ccccc3)oc2C1=O [Compound B33, 5-methyl-2-phenoxymethyl-6,7-dihydro-5H-oxazolo[5,4-c]pyridin-4-one]
76 | 1120 | 131.7 | O=C1c2oc(COc3ccccc3)nc2CCN1c1ccccc1 [Compound B13]
21 | > 30200 |  | O=C1NCCCc2nc(COc3ccccc3)oc21 [Compound B37, 2-phenoxymethyl-5,6,7,8-tetrahydro-3-oxa-1,5-diaza-azulen-4-one]
73 | 891 |  | O=C1c2oc(COc3ccccc3)nc2CCN1c1c(F)cccc1F [Compound B5]
64 | 575 |  | CC1Cc2nc(COc3ccccc3)oc2C(=O)N1c1ccc(F)cc1 (racemic) [Compound B27, (rac)-5-(4-fluoro-phenyl)-6-methyl-2-phenoxymethyl-6,7-dihydro-5H-oxazolo[5,4-c]pyridin-4-ONE]
56 | > 10000 | 125.7 | Cc1cc(N2CCc3nc(COc4ccccc4)oc3C2=O)ncc1F [Compound B21]
68 | 3470 | 119.2 | O=C1c2oc(COc3ccccc3)nc2CCN1CC1CC1 [Compound B34]

Emax [1] [%] | EC50 [1] [nM] | melting point [°C] | Structure (SMILES)
71 | 1320 | 132.5 | O=C1c2oc(COc3ccccc3)nc2CCN1c1cccc(F)c1 [Compound B3]
47 | > 10000 | 131.1 | COc1nccnc1N1CCc2nc(COc3ccccc3)oc2C1=O [Compound B25]
61 | > 10000 | 132.4 | Cc1ccc(N2CCc3nc(COc4ccccc4)oc3C2=O)nc1 [Compound B15]
43 | > 10000 | 138.8 | Cc1cccnc1N1CCc2nc(COc3ccccc3)oc2C1=O [Compound B17]
21 | > 30200 | 148.5 | O=C1NCCc2nc(COc3ccccc3)oc21 [Compound B29, 2-phenoxymethyl-6,7-dihydro-5H-oxazolo[5,4-c]pyridin-4-one]
77 | 501 | 151.7 | O=C1c2oc(COc3ccccc3)nc2CCN1c1ccc(F)c(F)c1 [Compound B6]
32 | > 30200 | 123.3 | O=C1c2oc(COc3ccccc3)nc2CCN1c1ccccn1 [Compound B8]
65 | 1290 | 216.7 | COc1nc(N2CCc3nc(COc4ccccc4)oc3C2=O)ncc1F [Compound B22, 5-(5-fluoro-4-methoxy-pyrimidin-2-yl)-2-phenoxymethyl-6,7-dihydro-5H-oxazolo[5,4-c]pyridin-4-one]
27 | > 30200 | 133.1 | O=C1c2oc(COc3ccccc3)nc2CCN1c1cncc(F)c1 [Compound B12]
38 | > 30200 | 188.7 | O=C1c2oc(COc3ccccc3)nc2CCN1c1cccnc1 [Compound B9]
79 | 646 |  | CC1CN(c2ccc(F)cc2)C(=O)c2oc(COc3ccccc3)nc21 (stereo not shown) [Compound B28]
74 | 1100 | 116.1 | O=C1c2oc(COc3ccccc3)nc2CCN1c1ccccc1F [Compound B2]
83 | 447 | 135.8 | O=C1c2oc(COc3ccccc3)nc2CCN1c1ccc(F)cc1 [Compound B1, 5-(4-fluoro-phenyl)-2-phenoxymethyl-6,7-dihydro-5H-oxazolo[5,4-c]pyridin-4-one]
38 | > 10000 | > 300 | Cc1ccnc(N2CCc3nc(COc4ccccc4)oc3C2=O)c1 [Compound B16]
49 | > 10000 | 130.9 | O=C1c2oc(COc3ccccc3)nc2CCN1c1ccncc1 [Compound B10]
